Measured values published in patent publication US20260041744A1, “Methods for Treating Pompe Disease” (Amicus Therapeutics, Inc., priority 2022, published 2026).
“Also recorded” adds a separate entry of the source.

What was measured:
Pompe disease patients = assay: Cross-study comparison of long-term effects on 6MWD and FVC (Example 12); format: in vivo, human; settings: ERT-experienced patients
From the text: FIG. 53A-FIG. 53B show the 6-minute walk test (6MWT) percentage predicted during treatment with alglucosidase alfa. […] The data from year 2 onward show the decline expected in ERT-experienced patients remaining on alglucosidase alfa.

[1] = system: adults with Pompe disease; assay: Study ATB200-02: sitting % predicted FVC; settings: for FVC change from baseline, mean: Cohort 2 (non-ambulatory ERT-experienced)
Method: Four cohorts of patients with Pompe disease were enrolled in the ATB200-02 study: • Cohort 1: ERT-experienced, aged 18-65 years, with 2-6 years prior ERT with 20 mg/kg alglucosidase alfa every 2 weeks (n=11) • Cohort 2: Non-ambulatory ERT-experienced, aged 18-65 years, with ≥2 years prior ERT with 20 mg/kg alglucosidase alfa every 2 weeks (n=6)· • Cohort 3: ERT-naïve, aged 18-65 years (n=6). • Cohort 4: ERT-experienced, aged 18-75 years, with ≥7 years prior ERT with 20 mg/kg alglucosidase alfa every 2 weeks (n=6)
The change from baseline (CFBL) in 6MWD, % predicted sitting FVC, manual muscle test (MMT) and biomarkers—urine glucose tetrasaccharide (Hex4) and serum creatine kinase (CK)—were assessed at regular intervals. Data with up to 36 months of follow-up in ERT-experienced and ERT-naïve patients is provided herein. […] Due to the staggered timing of patient enrollment, the number of patients with data currently available decreases at later time-points in this ongoing study.

Gaa KO mice = assay: Tissue glycogen content in Gaa KO mice (amyloglucosidase digestion); format: in vivo, mouse; settings: 20 mg/kg ATB200 IV + 10 mg/kg miglustat PO, 6 biweekly administrations
Method: The therapeutic effects of ATB200 and miglustat were evaluated and compared against those of Alglucosidase alfa in Gaa KO mice. For the study, male Gaa KO (3-to 4-month old) and age-matched wild-type (WT) mice were used. Alglucosidase alfa was administered via bolus tail vein intravenous (IV) injection. In the co-administration regimen, miglustat was administered via oral gavage (PO) 30 minutes prior to the IV injection of ATB200. Treatment was given biweekly. Treated mice were sacrificed after 14 days from the last administration and various tissues were collected for further analysis. Table 11 summarizes the study design:
Tissue glycogen content in tissues samples was determined using amyloglucosidase digestion, as discussed above.

[2] = Cohort 1 + Cohort 3 + Cohort 4, Month 12
[3] = Cohort 1 + Cohort 3 + Cohort 4, Month 24
[4] = Cohort 1 + Cohort 3 + Cohort 4, Month 36
[5] = Cohort 1 + Cohort 3 + Cohort 4, Month 48

## ATB200/miglustat: two-component therapy: cipaglucosidase alfa (ATB200) administered in conjunction with miglustat (AT2221), a stabilizer of cipaglucosidase alfa
Pompe disease patients
  long-term motor function by 6MWD after switching from alglucosidase alfa: progressive gains in motor function as assessed by 6MWD
  long-term pulmonary function by FVC after switching from alglucosidase alfa: stability in pulmonary function as assessed by FVC
[1]; Ambulatory ERT-experienced, 12 months
  Percent predicted sitting FVC, CFBL mean: −1.2
[1]; Ambulatory ERT-experienced, 24 months
  Percent predicted sitting FVC, CFBL mean: 1.0
[1]; Ambulatory ERT-experienced, 36 months
  Percent predicted sitting FVC, CFBL mean: −0.3
[1]; Ambulatory ERT-experienced, 48 months
  Percent predicted sitting FVC, CFBL mean: 1.0
[1]; Ambulatory ERT-naïve, 12 months
  Percent predicted sitting FVC, CFBL mean: 3.2
[1]; Ambulatory ERT-naïve, 24 months
  Percent predicted sitting FVC, CFBL mean: 4.7
[1]; Ambulatory ERT-naïve, 36 months
  Percent predicted sitting FVC, CFBL mean: 6.2
[1]; Ambulatory ERT-naïve, 48 months
  Percent predicted sitting FVC, CFBL mean: 8.3
[1]; [2]
  sitting % predicted FVC change from baseline, mean: 0.0%
  sitting % predicted FVC change from baseline, median: −0.5%
[1]; [3]
  sitting % predicted FVC change from baseline, mean: 2.2%
  sitting % predicted FVC change from baseline, median: 2.0%
[1]; [4]
  sitting % predicted FVC change from baseline, mean: 1.9%
  sitting % predicted FVC change from baseline, median: 2.0%
[1]; [5]
  sitting % predicted FVC change from baseline, mean: 3.9%
  sitting % predicted FVC change from baseline, median: 4.5%
[1]; Cohort 1 + Cohort 4 (ERT-experienced), Month 12, listed as cipaglucosidase alfa/miglustat
  sitting % predicted FVC change from baseline, mean: −1.2%
[1]; Cohort 1 + Cohort 4 (ERT-experienced), Month 36
  sitting % predicted FVC change from baseline, mean: −0.3%
[1]; Cohort 1 + Cohort 4, Month 12
  sitting % predicted FVC change from baseline, median: −1.0%
[1]; Cohort 1 + Cohort 4, Month 24
  sitting % predicted FVC change from baseline, median: 1.0%
[1]; Cohort 1 + Cohort 4, Month 36
  sitting % predicted FVC change from baseline, median: −1.5%
[1]; Cohort 1 + Cohort 4, Month 48
  sitting % predicted FVC change from baseline, median: 3.5%
[1]; month 12
  FVC change from baseline, mean: +2.5%
[1]; month 24
  FVC change from baseline, mean: +2.0%
[1]; month 36
  FVC change from baseline, mean: −2.0%
[1]; month 48
  FVC change from baseline, mean: −1.0%
[1]; Cohort 3 (ERT-naïve), Month 12
  sitting % predicted FVC change from baseline, mean: 3.2%
[1]; Cohort 3 (ERT-naïve), Month 24
  sitting % predicted FVC change from baseline, mean: 4.7%
[1]; Cohort 3 (ERT-naïve), Month 36
  sitting % predicted FVC change from baseline, mean: 6.2%
[1]; Cohort 3 (ERT-naïve), Month 48
  sitting % predicted FVC change from baseline, mean: 8.3%
[1]; Cohort 3, Month 12
  sitting % predicted FVC change from baseline, median: 4.5%
[1]; Cohort 3, Month 24
  sitting % predicted FVC change from baseline, median: 4.0%
[1]; Cohort 3, Month 36
  sitting % predicted FVC change from baseline, median: 5.0%
[1]; Cohort 3, Month 48
  sitting % predicted FVC change from baseline, median: 9.5%
[1]; ERT-experienced, 12 months
  patients whose FVC improved (>3%) or remained stable (±3%) from baseline (n/N): 9/16
[1]; ERT-experienced, 24 months
  patients whose FVC improved (>3%) or remained stable (±3%) from baseline (n/N): 11/13
[1]; ERT-experienced, 36 months
  patients whose FVC improved (>3%) or remained stable (±3%) from baseline (n/N): 8/10
[1]; ERT-experienced, 48 months
  patients whose FVC improved (>3%) or remained stable (±3%) from baseline (n/N): 4/6
[1]; ERT-experienced, Month 48
  patients with improvement (CFBL >3% points) in % predicted sitting FVC: 66.7%
[1]; ERT-naïve, 12 months
  patients whose FVC improved (>3%) or remained stable (±3%) from baseline (n/N): 5/6
[1]; ERT-naïve, 24 months
  patients whose FVC improved (>3%) or remained stable (±3%) from baseline (n/N): 6/6
[1]; ERT-naïve, 36 months
  patients whose FVC improved (>3%) or remained stable (±3%) from baseline (n/N): 5/5
[1]; ERT-naïve, 48 months
  patients whose FVC improved (>3%) or remained stable (±3%) from baseline (n/N): 4/4
[1]; ERT-naïve, Month 48
  patients with improvement (CFBL >3% points) in % predicted sitting FVC: 75%
[1]; Non-ambulatory ERT-experienced, 12 months
  Percent predicted sitting FVC, CFBL mean: 2.5
[1]; Non-ambulatory ERT-experienced, 24 months
  Percent predicted sitting FVC, CFBL mean: 2.0
[1]; Non-ambulatory ERT-experienced, 36 months
  Percent predicted sitting FVC, CFBL mean: −2.0
[1]; Non-ambulatory ERT-experienced, 48 months
  Percent predicted sitting FVC, CFBL mean: −1.0
[1]; up to 48 months, listed as cipaglucosidase alfa/miglustat
  % predicted FVC outcome (words; cohort in the words): stable or improved % predicted FVC for ERT-experienced subjects (Cohorts 1 and 4), ERT-naïve subjects (Cohort 3), and overall (Cohorts 1, 3, and 4); also recorded: For Cohort 2 (non-ambulatory subjects), sitting % predicted FVC was stable in 2 subjects with available data out to 36 months
Gaa KO mice
  tissue glycogen content vs alglucosidase alfa: significantly decreased the glycogen content in four different tissues (quadriceps, triceps, gastrocnemius, and heart) as compared to the same dosage of alglucosidase alfa
